In data set [1] the test system is VASP Ser239 phosphorylation. Kind of data set: Immunoblotting of phospho-VASP (Ser239) in ADP-stimulated washed platelets, with or without PKA, PKG, PKC inhibitors. The format is cell-based, rat. The settings on record: for p-VASP(Ser239) / GAPDH (Fold to ADP only) / p-VASP(Ser239) / GAPDH (raw data): ADP-stimulated, Figure 7C. As to the method: For in vitro platelet aggregation, aliquots of washed platelets were preincubated with vehicle or various concentrations of naringenin for 5 min and stimulated with ADP (10 μmol/L) under stirring at 37°C for 5 min. For ex vivo platelet aggregation, PRP was incubated at 37°C for 5 min and stimulated with ADP (5 μmol/L) under stirring at 37 °C. The platelet aggregation was terminated by adding ethylenediaminetetraacetic acid (EDTA; 10 mM). Total protein was prepared using RIPA lysis buffer and protein content was determined by bicinchoninic acid (BCA) protein assay kit. Equal amounts of platelet proteins (30 μg) were separated on 10% SDS polyacrylamide gel electrophoresis (SDS-PAGE) and then transferred to poly vinylidene difluoride (PVDF) membranes and subjected to western blot. Blots were blocked with TBS-Tween 20 containing 5% BSA and probed with primary antibodies diluted in blocking solution at 4°C overnight followed by incubation with the corresponding HRP secondary antibodies. The protein bands were visualized using enhanced chemiluminescence (ECL).
VASP is a substrate for cAMP- and cGMP- dependent protein kinases, which mediate cAMP- and cGMP-dependent inhibitory signaling in platelets, respectively. Increased cAMP levels followed by the activation of cAMP-dependent protein kinase A (PKA) phosphorylates VASP at position Ser157, whereas the elevation of cGMP leads to VASP phosphorylation at position Ser239 by cGMP-dependent protein kinase G (PKG) ([Aszódi et al., 1999]; [Li et al., 2003a]). To further examine whether naringenin modulates cAMP- or cGMP-mediated inhibitory signaling, the phosphorylation of VASP (Ser157 and Ser239) in washed platelets on stimulation with ADP were measured in the absence or presence of naringenin (100, 200, 400, and 800 μM). […] To further confirm the antiplatelet effects of naringenin through PKA-dependent signaling, the effects of naringenin on platelet aggregation were measured in the presence of PKG inhibitor (Rp-8-Br-PET-cGMPS) and PKA inhibitor (H89).
FIGURE 7 Naringenin promotes VASP phosphorylation. The effects of naringenin on phosphorylation of VASP (at positions Ser 157 and Ser239) were measured in washed platelets upon stimulation with ADP (10 μmol/L) by western blotting (A). The blots shown are representative of three separate experiments. The phosphorylation levels were quantified by ImageJ 1.47v software. The level of phosphorylation obtained with vehicle control (0 μM) was taken as 1 (B,C). R represents the phosphorylation level in resting platelets. Data are expressed as means ± SD (n = 3). *p < 0.05, ***p < 0.001 compared with the vehicle control group. VASP phosphorylation at Ser239 was also analyzed in washed platelets incubated with 5 μmol/L PKA (H89), 30 μmol/L PKG (Rp-8-Br-PET-cGMPS), or 5 μmol/L PKC (GF109203X) inhibitors before treatment with naringenin (D). Washed platelets were incubated with vehicle or naringenin (200 μmol/L) at 37°C in the presence or absence of 5 μmol/L PKA (H89) or 30 μmol/L PKG (Rp-8-Br-PET-cGMPS) inhibitors. After treatment, platelets were stimulated with ADP (10 μmol/L) to trigger aggregation (E). Data are expressed as means ± SD (n = 6). ***p < 0.001 compared with the ADP-treated group, ^# p < 0.05, ^### p < 0.001 compared with naringenin alone or H89 alone.

Data set [2] concerns washed platelets on collagen-coated coverslips. Kind of data set: Platelet adhesion on collagen-coated surface. The settings on record: for Area (%) of platelets adherent on collagen: single replicates. The format is cell-based, rat. Here is the method: Washed platelets were treated with naringenin or vehicle at 37°C for 10 min in the presence of 2 mM CaCl2 ([Suzuki-Inoue et al., 2001]). The platelets were added to collagen-coated coverslips and incubated at 37°C for 45 min. After unbound platelets were removed by washing, adherent platelets were fixed with 4% paraformaldehyde, permeabilized with 0.1% Triton X-100 and stained with TRITC-conjugated phalloidin (1 μg/ml). Adherent platelets were viewed using an inverted fluorescence microscope (Nikon TE-2000S) and processed using Image J software.

The nature of data set [3]: Cytotoxicity: LDH leakage from platelets. Type of data set: cell-based. The following applies: rat. Here is the method: To assess the potential cytotoxicity of naringenin, lactate dehydrogenase (LDH) leakage from platelets were determined. Washed platelets were preincubated with either various concentrations of naringenin or vehicle at 37°C for 5 min and then centrifuged at 350 × g for 3 min at room temperature. The supernatant was detected by LDH assay kit (Beyotime Biotechnology, Shanghai, China). LDH leakage was expressed as percentages of the total LDH leakage in platelets completely lysed with 0.1% Triton X-100.

The next data set deals with washed rat platelets. Kind of data set: ADP (10 μM)-induced aggregation of washed rat platelets. Type of data set: cell-based. The following applies: H89+Naringenin (200 μM)+ADP (10 μM); Figure 7E.

SMILES strings stand for the structures. Where “and” joins values, the source holds several entries; their conditions need not be identical. Equal values may be shown once. Read-outs that look alike come from different tables or passages of the source.

Take `O=C1C[C@@H](c2ccc(O)cc2)Oc2cc(O)cc(O)c21` [Naringenin]: in data set [1] (ADP-stimulated washed platelets, 100, 200, 400, and 800 μM), the “phosphorylation of VASP at Ser239” value is reported as “induced the phosphorylation of VASP at Ser239”. The “p-VASP(Ser239) / GAPDH (Fold to ADP only)” value was 5.3418 and 4.6396 and 5.0239 in data set [1] (naringenin 100 μM); 4.4032 and 4.7219 and 3.7689 in data set [1] (naringenin 200 μM); 4.5890 and 4.9045 and 3.3393 in data set [1] (naringenin 400 μM); 5.3132 and 6.0564 and 4.7205 in data set [1] (naringenin 800 μM). Moreover, the “p-VASP(Ser239) / GAPDH (raw data)” value in data set [1] (naringenin 100 μM) is 0.6957 and 0.6043 and 0.6543; in data set [1] (naringenin 200 μM), 0.5735 and 0.6150 and 0.4909; in data set [1] (naringenin 400 μM), 0.5977 and 0.6388 and 0.4349; in data set [1] (naringenin 800 μM), 0.6920 and 0.7888 and 0.6148. For the same molecule, the “Area (%) of platelets adherent on collagen” value in data set [2] (100 μM) is 29.32% and 16.92% and 17.38%; in data set [2] (200 μM), 17.54% and 13.16% and 17.35%; in data set [2] (400 μM) it was 12.99% and 15.28% and 9.21%; in data set [2] (800 μM), 2.55% and 1.74% and 1.66%. In data set [2] (200, 400 and 800 μM), the “platelet adhesion on collagen-coated surface” value is reported as “significantly reduced”. Also, the cytotoxicity at 5 min, 100 µM in data set [3] (Cytotoxicity (%)) is 0.99 ± 0.21%. This molecule also had a cytotoxicity at 5 min, 200 µM in data set [3] (Cytotoxicity (%)) of 1.16 ± 0.39%. Further, the cytotoxicity at 5 min, 400 μM in data set [3] (Cytotoxicity (%)) is 2.11 ± 0.81%; in data set [3] (washed platelets, naringenin 400 μM, LDH leakage, Table 1, read-out: Cytotoxicity (%)), 1.94%. Besides, the cytotoxicity at 5 min, 800 μM in data set [3] (Cytotoxicity (%)) came out at 2.5 ± 0.85%; in data set [3] (washed platelets, naringenin 800 μM, LDH leakage, Table 1, read-out: Cytotoxicity (%)), 1.94%. Besides, in the data set with washed rat platelets, the “Aggregation (%)” value was 25.0% and 17.3% and 32.6% and 33.0% and 28.0% and 21.0%.

The values are drawn from PMC8406801, “Naringenin Inhibits Platelet Activation and Arterial Thrombosis Through Inhibition of Phosphoinositide 3-Kinase and Cyclic Nucleotide Signaling” (Frontiers in Pharmacology, 2021).
